Counter-ions that a name gives are not always drawn.
Tests used:
Human GlyT1c = biological target: T1, Human GlyT1c (Homo sapiens, UniProt P48067); assay: Glycine uptake in recombinant hGlyT1 expressing cells; format: cell-based; conditions: hGlyT1c_5_CHO cells; [3H]-glycine uptake, 60-120 min
T1 construct: expressed in transfected cells; host or cells: CHO (hGlyT1c_5_CHO clone)
T1 sequence (P48067 1-706): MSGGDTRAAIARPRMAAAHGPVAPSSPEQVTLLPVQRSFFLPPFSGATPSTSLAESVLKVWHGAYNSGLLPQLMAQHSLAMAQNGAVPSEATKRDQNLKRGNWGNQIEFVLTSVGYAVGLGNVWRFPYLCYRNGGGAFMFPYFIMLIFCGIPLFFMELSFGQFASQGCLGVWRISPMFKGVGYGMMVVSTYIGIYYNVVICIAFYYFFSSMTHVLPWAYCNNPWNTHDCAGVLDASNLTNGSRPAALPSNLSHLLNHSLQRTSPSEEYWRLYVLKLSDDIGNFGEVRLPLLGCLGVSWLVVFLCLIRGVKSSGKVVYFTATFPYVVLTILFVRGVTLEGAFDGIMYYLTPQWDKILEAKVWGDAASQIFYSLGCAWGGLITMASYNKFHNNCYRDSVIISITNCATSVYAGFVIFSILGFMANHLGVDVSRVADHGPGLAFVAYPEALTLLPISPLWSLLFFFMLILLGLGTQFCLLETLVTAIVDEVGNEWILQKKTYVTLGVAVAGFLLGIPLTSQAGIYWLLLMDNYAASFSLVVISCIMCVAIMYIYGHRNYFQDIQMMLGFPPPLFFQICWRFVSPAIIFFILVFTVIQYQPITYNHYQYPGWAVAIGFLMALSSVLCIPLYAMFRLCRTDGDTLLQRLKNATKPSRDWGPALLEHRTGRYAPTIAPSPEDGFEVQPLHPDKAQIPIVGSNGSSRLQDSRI
Experimental: 1. Glycine Uptake in Recombinant hGlyT1 Expressing Cells:
Human GlyT1c expressing recombinant hGlyT1c—5_CHO cells were plated at 20,000 cells per well in 96 well Cytostar-T scintillation microplates (Amersham Biosciences) and cultured to sub-confluency for 24 h. For glycine uptake assays the culture medium was aspirated and the cells were washed once with 100 μl HBSS (Gibco BRL, #14025-050) with 5 mM L-Alanine (Merck #1007). 80 μl HBSS buffer were added, followed by 10 μl inhibitor or vehicle (10% DMSO) and 10 μl [^3H]-glycine (TRK71, Amersham Biosciences) to a final concentration of […] for initiation of glycine uptake. The plates were placed in a Wallac Microbeta (PerkinElmer) and continuously counted by solid phase scintillation spectrometry during up to 3 hours. Nonspecific uptake was determined in the presence of 10 μM Org24598. IC50 calculations were made by four-parametric logistic nonlinear regression analysis (GraphPad Prism) using determinations within the range of linear increase of [^3H]-glycine incorporation between 60 and 120 min.

human GlyT1c transporter = biological target: T2, human GlyT1c transporter (Homo sapiens, UniProt P48067); assay: [3H]-(R)-NPTS radioligand binding assay using recombinant hGlyT1 expressing cell membranes; conditions: 0.5 nM [3H]-(R)-NPTS, apparent Ki via Cheng-Prusoff, read-out: [3H]-(R)-NPTS bindung Ki
T2 construct: expressed in transfected cells; host or cells: recombinant hGlyT1-expressing cells
T2 sequence (P48067 1-706): T1 sequence (P48067 1-706)
Experimental: 2. [^3H]-(R)-NPTS Radioligand Binding Assays using Recombinant hGlyT1 Expressing Cell Membranes:
Radioligand binding to human GlyT1c transporter-expressing membranes was measured in duplicate in a total volume of 200 μl in 96-well plates. To 100 μl of membrane suspension (yielding a final membrane protein concentration of 50 μg/ml) in assay buffer (120 mM NaCl, 2 mM KCl, 10 mM Hepes, 1 mM MgCl2, 1 mM CaCl2, pH 7.5) […] of [^3H]-(R)NPTS (0.5 nM final) were added in assay buffer. For competition experiments 10 μl of buffer or unlabeled compound solution obtained from dilution series of test compounds in DMSO followed. An intermediate 1:10 dilution in assay buffer yielded a final DMSO concentration of 1%. Non-specific binding was determined in the presence of 10 μM Org24598 (or its racemate Org24461) for [^3H]-(R)-NPTS. After incubation at room temperature for 1 h, the incubation mixture was harvested (Tomtec Mach III U Harvester) through 96-well GF/B filter plates (PerkinElmer), presoaked for 1 h with 40 μl per well of 0.1% polyethylene-imine (PEI). After washing twice with ice-cold 50 mM Tris-HCl pH 7.4 buffer, drying and addition of 35 μl scintillator (BetaplateScint, PerkinElmer) per well followed. The radioactivity was determined by liquid scintillation spectrometry in a MicroBeta (PerkinElmer) plate counter.
Data analysis: For binding of [^3H]-(R)-NPTS to cell membranes, the calculation of Kd and Bmax values from the saturation binding assays and the IC50 values from the displacement binding was performed by iterative non-linear regression analysis adapted from the ‘Ligand’ program (Munson and Rodbard, 1980). Radioligand displacement curves in absence or in presence of increasing concentrations of tested compounds were fitted using a one-site fit and the apparent Ki values were calculated from the IC50 values using the Cheng-Prusoff equation (Cheng and Prusoff 1973).

IC50 (Human GlyT1c) [nM]	Ki (human GlyT1c transporter) [nM]	SMILES
≤ 1000	≤ 1000	CSc1cccc2c(NCc3ccc(F)c(F)c3)cc(C)nc12 [Example 86, (3,4-Difluorobenzyl)-(2-methyl-8-methylsulfanylquinolin-4-yl)-amine]
≤ 10000	≤ 1000	COc1cccc2c(NC(CN3CCCC3)c3ccc(Cl)cc3)cc(C)nc12 (stereo not shown) [Example 67, [1-(4-Chloro-phenyl)-2-pyrrolidin-1-yl-ethyl]-(8-methoxy-2-methyl-quinolin-4-yl)-amine]
≤ 100	≤ 10	Cc1cc(NCc2ccc(Cl)c(Cl)c2)c2cccc(OCCNS(=O)(=O)CC(C)C)c2n1 [Example 31, 2-Methylpropane-1-sulfonic {2-[4-(3,4-dichlorobenzylamino)-2-methylquinolin-8-yloxy]-ethyl}-amide]
≤ 10000	≤ 100	Cc1cc(N[C@@H](c2ccccc2)[C@@H]2CCCCN2)c2cccc(OCCNS(=O)(=O)c3cccnc3)c2n1 [Example 40, Pyridin-3-sulfonic (2-{2-methyl-4-[((S)-phenyl-(S)-piperidin-2-yl-methyl)-amino]-quinolin-8-yloxy}-ethyl)-amide dihydrochloride]
≤ 1000	≤ 1000	Cc1cc(NCc2ccc(F)cc2)c2ccccc2n1 [Example 90, (4-Fluorobenzyl)-(2-methylquinoline-4-yl)-amine]
≤ 1000	≤ 100	CC(=O)NCCOc1cccc2c(NCc3ccc(Cl)c(Cl)c3)cc(C)nc12 [Example 24, N-{2-[4-(3,4-Dichlorobenzylamino)-2-methylquinolin-8-yloxy]-ethyl}-acetamide]
≤ 100	≤ 100	CN(C)c1cc(NCc2ccc(Cl)c(Cl)c2)c2ccccc2n1 [Example 95, N*4*-(3,4-Dichlorobenzyl)-N*2*,N*2*-dimethylquinoline-2,4-diamine]
≤ 10000	≤ 1000	Cc1ccc(S(=O)(=O)N2CCN(c3cccc4c(NCc5ccc(Cl)c(Cl)c5)cc(C)nc34)CC2)cc1 [Example 17, (3,4-Dichlorobenzyl)-{2-methyl-8-[4-(toluene-4-sulfonyl)-piperazin-1-yl]-quinolin-4-yl}-amine]
≤ 1000	≤ 100	Cc1cc(NCc2ccc(Cl)c(Cl)c2)c2cccc(OCc3ccccc3)c2n1 [Example 46, (8-Benzyloxy-2-methylquinolin-4-yl)-(3,4-dichlorobenzyl)-amine]
≤ 100	≤ 100	Cc1cc(NCc2ccc(Cl)c(Cl)c2)c2cccc(OC(C)C)c2n1 [Example 42, (3,4-Dichlorobenzyl)-(8-isopropoxy-2-methylquinolin-4-yl)-amine hydrochloride]
≤ 1000	≤ 100	Cc1cc(NCc2ccc(Cl)cc2Cl)c2cccc(OCCNS(C)(=O)=O)c2n1 [Example 38, N-{2-[4-(2,4-Dichlorobenzylamino)-2-methylquinolin-8-yloxy]-ethyl}-methanesulfonamide]
≤ 1000	≤ 1000	Cc1cc(NCc2ccc(Cl)c(Cl)c2)c2cccc([S+](C)[O-])c2n1 (stereo not shown) [Example 92, (3,4-Dichlorobenzyl)-(8-methanesulfinyl-2-methylquinolin-4-yl)-amine]
≤ 10000	≤ 10000	COc1cccc2c(NC(CN3CCOCC3)c3ccc(Cl)cc3)cc(C)nc12 (stereo not shown) [Example 65, [1-(4-Chlorophenyl)-2-morpholin-4-yl-ethyl]-(8-methoxy-2-methylquinolin-4-yl)-amine]
≤ 100	≤ 100	Cc1cc(NCc2ccc(Cl)c(Cl)c2)c2cccc(OCCN3CCOCC3)c2n1 [Example 48, (3,4-Dichlorobenzyl)-[2-methyl-8-(2-morpholin-4-yl-ethoxy)-quinolin-4-yl]-amine dihydrochloride]
≤ 1000	≤ 10	Cc1cc(NCc2ccc(Cl)c(Cl)c2)c2cccc(OCCN)c2n1 [Example 20, [8-(2-Aminoethoxy)-2-methylquinolin-4-yl]-(3,4-dichlorobenzyl)-amine dihydrochloride]
≤ 1000	≤ 100	CCNc1cccc2c(NCc3ccc(Cl)c(Cl)c3)cc(C)nc12 [Example 9, N*4*-(3,4-Dichlorobenzyl)-N*8*-ethyl-2-methylquinolin-4,8-diamine]
≤ 100000	≤ 10000	COc1cccc2c(NC(CN3CCCCC3)c3ccccc3)cc(C)nc12 (stereo not shown) [Example 63, (8-Methoxy-2-methyl-quinolin-4-yl)-(1-phenyl-2-piperidin-1-yl)-ethylamine]
≤ 10000	≤ 10000	C=CCN1CCCC[C@H]1[C@@H](Nc1cc(C)nc2c(OCCNC(=O)OC(C)(C)C)cccc12)c1ccccc1 [Example 33, [2-(4-{[(S)—((S)-1-Allyl-piperidin-2-yl)-phenylmethyl]-amino}-2-methylquinolin-8-yloxy)ethyl]-carbamate tert-butyl ester]
≤ 100000	≤ 1000	Cc1cc(NCc2ccc(Cl)c(Cl)c2)c2cccc(NC(=O)c3ccccc3)c2n1 [Example 10, N-[4-(3,4-Dichlorobenzylamino)-2-methylquinolin-8-yl]-benzamide]
≤ 100000	≤ 10000	COc1cccc2c(N[C@@H](C)c3ccc(Cl)cc3)cc(C)nc12 [Example 57, [(S)-1-(4-Chlorophenyl)-ethyl]-(8-methoxy-2-methylquinolin-4-yl)-amine]
≤ 1000	≤ 1000	Cc1cc(NCc2ccc(F)c(F)c2)c2cccc(C)c2n1 [Example 85, (3,4-Difluoro-benzyl)-(2,8-dimethyl-quinolin-4-yl)-amine]
≤ 100	≤ 100	Cc1cc(NCc2ccc(Cl)c(Cl)c2)c2cccc(OCCNC(=O)OC(C)(C)C)c2n1 [Example 19, {2-[4-(3,4-Dichlorobenzylamino)-2-methylquinolin-8-yloxy]-ethyl}-carbamate tert-butyl ester]
≤ 10000	≤ 10000	COc1cccc2c(NC(c3ccccc3)c3ccc(Cl)cc3)cc(C)nc12 (stereo not shown) [Example 64, [(4-Chlorophenyl)-phenylmethyl]-(8-methoxy-2-methylquinolin-4-yl)-amine]
≤ 1000	≤ 1000	COc1cccc2c(N[C@@H](c3ccccc3)[C@@H]3CCCCN3)cc(C)nc12 [Example 54, (8-Methoxy-2-methylquinolin-4-yl)-((S)-phenyl-(S)-piperidin-2-yl-methyl)-amine]
≤ 100000	≤ 10000	Cc1cc(NCc2ccc(Cl)c(Cl)c2)c2cccc(N(S(C)(=O)=O)S(C)(=O)=O)c2n1 [Example 11, N-[4-(3,4-Dichlorobenzylamino)-2-methylquinolin-8-yl]-bis-methanesulfonamide]
≤ 1000	≤ 100	Cc1cc(NCc2ccc(Cl)cc2Cl)c2cccc(OCCNS(=O)(=O)CC(C)C)c2n1 [Example 39, 2-Methylpropane-1-sulfonic {2-[4-(2,4-dichlorobenzylamino)-2-methylquinolin-8-yloxy]-ethyl}-amide]

— patent publication US8420670B2 (Abbott Laboratories, priority 2007, dated 2013)
